# Experimental data taken from BindingDB's records for doi:10.1016/1074-5521(95)90264-3 (Smithkline Beecham Pharmaceuticals, 1995).
# Target: Peptidyl-prolyl cis-trans isomerase FKBP1A (Homo sapiens, UniProt P62942)
# Assay: FKBP12 Assay
# From the text: FKBP12 assay using rapamycin analogs.
# Sequence of Peptidyl-prolyl cis-trans isomerase FKBP1A (P62942 whole entry): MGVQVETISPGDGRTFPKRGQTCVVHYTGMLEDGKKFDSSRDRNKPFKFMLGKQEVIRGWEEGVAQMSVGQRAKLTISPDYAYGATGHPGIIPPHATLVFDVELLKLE
Structure (SMILES),EC50,Ki
"CO[C@@H]1C[C@H](C[C@@H](C)[C@@H]2CC(=O)[C@H](C)/C=C(\C)[C@@H](O)[C@@H](OC)C(=O)[C@H](C)C[C@H](C)/C=C/C=C/C=C(\C)CC[C@@H]3CC[C@@H](C)[C@@](O)(O3)C(=O)C(=O)N3CCCC[C@H]3C(=O)O2)CC[C@H]1O [Rapamycin C-7, analog 12]",2 nM,1 nM
"CO[C@@H]1C[C@H](C[C@@H](C)[C@@H]2CC(=O)[C@H](C)/C=C(\C)[C@@H](O)[C@@H](OC)C(=O)[C@H](C)C[C@H](C)/C=C/C=C/C=C(\C)[C@H](OCc3cccc([N+](=O)[O-])c3)C[C@@H]3CC[C@@H](C)[C@@](O)(O3)C(=O)C(=O)N3CCCC[C@H]3C(=O)O2)CC[C@H]1O [Rapamycin C-7, analog 15a]",50 nM,7 nM
"CO[C@@H]1C[C@H](C[C@@H](C)[C@@H]2CC(=O)[C@H](C)/C=C(\C)[C@@H](O)[C@@H](OC)C(=O)[C@H](C)C[C@H](C)/C=C/C=C/C=C(\C)[C@H](OCc3ccccc3)C[C@@H]3CC[C@@H](C)[C@@](O)(O3)C(=O)C(=O)N3CCCC[C@H]3C(=O)O2)CC[C@H]1O [Rapamycin C-7, analog 14a]",6 nM,5 nM
"CO[C@@H]1C[C@H](C[C@@H](C)[C@@H]2CC(=O)[C@H](C)/C=C(\C)[C@@H](O)[C@@H](OC)C(=O)[C@H](C)C[C@H](C)/C=C/C=C/C=C(\C)[C@H](OCc3ccc(Cl)cc3)C[C@@H]3CC[C@@H](C)[C@@](O)(O3)C(=O)C(=O)N3CCCC[C@H]3C(=O)O2)CC[C@H]1O [Rapamycin C-7, analog 16a]",45 nM,1 nM
"CO[C@@H]1C[C@H](C[C@@H](C)[C@@H]2CC(=O)[C@H](C)/C=C(\C)[C@@H](O)[C@@H](OC)C(=O)[C@H](C)C[C@H](C)/C=C/C=C/C=C(\C)[C@@H](SC)C[C@@H]3CC[C@@H](C)[C@@](O)(O3)C(=O)C(=O)N3CCCC[C@H]3C(=O)O2)CC[C@H]1O [Rapamycin C-7, analog 6b]",4 nM,1 nM
"COC(=O)N[C@@H]1C[C@@H]2CC[C@@H](C)[C@@](O)(O2)C(=O)C(=O)N2CCCC[C@H]2C(=O)O[C@H]([C@H](C)C[C@@H]2CC[C@@H](O)[C@H](OC)C2)CC(=O)[C@H](C)/C=C(\C)[C@@H](O)[C@@H](OC)C(=O)[C@H](C)C[C@H](C)/C=C/C=C/C=C/1C [Rapamycin C-7, analog 7a]",> 10000 nM,4.5 nM
"CCO[C@@H]1C[C@@H]2CC[C@@H](C)[C@@](O)(O2)C(=O)C(=O)N2CCCC[C@H]2C(=O)O[C@H]([C@H](C)C[C@@H]2CC[C@@H](O)[C@H](OC)C2)CC(=O)[C@H](C)/C=C(\C)[C@@H](O)[C@@H](OC)C(=O)[C@H](C)C[C@H](C)/C=C/C=C/C=C/1C [Rapamycin C-7, analog 5a]",10 nM,3.5 nM
"CO[C@@H]1C[C@H](C[C@@H](C)[C@@H]2CC(=O)[C@H](C)/C=C(\C)[C@@H](O)[C@@H](OC)C(=O)[C@H](C)C[C@H](C)C=CC=CC=C(C)C(=O)C[C@@H]3CC[C@@H](C)[C@@](O)(O3)C(=O)C(=O)N3CCCC[C@H]3C(=O)O2)CC[C@H]1O [Rapamycin C-7, analog 13]",300 nM,29 nM
"CO[C@@H]1C[C@H](C[C@@H](C)[C@@H]2CC(=O)[C@H](C)/C=C(\C)[C@@H](O)[C@@H](OC)C(=O)[C@H](C)C[C@H](C)/C=C/C=C/C=C(\C)[C@H](OCc3ccc(N=[N+]=[N-])c(I)c3)C[C@@H]3CC[C@@H](C)[C@@](O)(O3)C(=O)C(=O)N3CCCC[C@H]3C(=O)O2)CC[C@H]1O [Rapamycin C-7, analog 17a]",90 nM,30 nM
"CCO[C@H]1C[C@@H]2CC[C@@H](C)[C@@](O)(O2)C(=O)C(=O)N2CCCC[C@H]2C(=O)O[C@H]([C@H](C)C[C@@H]2CC[C@@H](O)[C@H](OC)C2)CC(=O)[C@H](C)/C=C(\C)[C@@H](O)[C@@H](OC)C(=O)[C@H](C)C[C@H](C)/C=C/C=C/C=C/1C [Rapamycin C-7, analog 5b]",200 nM,4 nM
"COC(=O)N[C@H]1C[C@@H]2CC[C@@H](C)[C@@](O)(O2)C(=O)C(=O)N2CCCC[C@H]2C(=O)O[C@H]([C@H](C)C[C@@H]2CC[C@@H](O)[C@H](OC)C2)CC(=O)[C@H](C)/C=C(\C)[C@@H](O)[C@@H](OC)C(=O)[C@H](C)C[C@H](C)/C=C/C=C/C=C/1C [Rapamycin C-7, analog 7b]",2500 nM,3.7 nM

# The next lines start with the values.
EC50,Ki,Structure (SMILES)
20 nM,3 nM,"CO[C@@H]1C[C@H](C[C@@H](C)[C@@H]2CC(=O)[C@H](C)/C=C(\C)[C@@H](O)[C@@H](OC)C(=O)[C@H](C)C[C@H](C)/C=C/C=C/C=C(\C)[C@H](c3ccco3)C[C@@H]3CC[C@@H](C)[C@@](O)(O3)C(=O)C(=O)N3CCCC[C@H]3C(=O)O2)CC[C@H]1O [Rapamycin C-7, analog 10a]"
11 nM,10 nM,"CO[C@@H]1C[C@H](C[C@@H](C)[C@@H]2CC(=O)[C@H](C)/C=C(\C)[C@@H](O)[C@@H](OC)C(=O)[C@H](C)C[C@H](C)/C=C/C=C/C=C(\C)[C@H](c3ccc[nH]3)C[C@@H]3CC[C@@H](C)[C@@](O)(O3)C(=O)C(=O)N3CCCC[C@H]3C(=O)O2)CC[C@H]1O [Rapamycin C-7, analog 11a]"
20 nM,6 nM,"CO[C@@H]1C[C@H](C[C@@H](C)[C@@H]2CC(=O)[C@H](C)/C=C(\C)[C@@H](O)[C@@H](OC)C(=O)[C@H](C)C[C@H](C)/C=C/C=C/C=C(\C)[C@@H](c3ccco3)C[C@@H]3CC[C@@H](C)[C@@](O)(O3)C(=O)C(=O)N3CCCC[C@H]3C(=O)O2)CC[C@H]1O [Rapamycin C-7, analog 10b]"
70 nM,1.5 nM,"CO[C@@H]1C[C@H](C[C@@H](C)[C@@H]2CC(=O)[C@H](C)/C=C(\C)[C@@H](O)[C@@H](OC)C(=O)[C@H](C)C[C@H](C)/C=C/C=C/C=C(\C)[C@@H](c3ccc[nH]3)C[C@@H]3CC[C@@H](C)[C@@](O)(O3)C(=O)C(=O)N3CCCC[C@H]3C(=O)O2)CC[C@H]1O [Rapamycin C-7, analog 11b]"
> 1000 nM,7 nM,"COc1cc(OC)c([C@H]2C[C@@H]3CC[C@@H](C)[C@@](O)(O3)C(=O)C(=O)N3CCCC[C@H]3C(=O)O[C@H]([C@H](C)C[C@@H]3CC[C@@H](O)[C@H](OC)C3)CC(=O)[C@H](C)/C=C(\C)[C@@H](O)[C@@H](OC)C(=O)[C@H](C)C[C@H](C)/C=C/C=C/C=C/2C)c(OC)c1 [Rapamycin C-7, analog 9]"
4 nM,1 nM,"CO[C@@H]1C[C@H](C[C@@H](C)[C@@H]2CC(=O)[C@H](C)/C=C(\C)[C@@H](O)[C@@H](OC)C(=O)[C@H](C)C[C@H](C)/C=C/C=C/C=C(\C)[C@H](SC)C[C@@H]3CC[C@@H](C)[C@@](O)(O3)C(=O)C(=O)N3CCCC[C@H]3C(=O)O2)CC[C@H]1O [Rapamycin C-7, analog 6a]"
1000 nM,9 nM,"COc1ccc([C@@H]2C[C@@H]3CC[C@@H](C)[C@@](O)(O3)C(=O)C(=O)N3CCCC[C@H]3C(=O)O[C@H]([C@H](C)C[C@@H]3CC[C@@H](O)[C@H](OC)C3)CC(=O)[C@H](C)/C=C(\C)[C@@H](O)[C@@H](OC)C(=O)[C@H](C)C[C@H](C)/C=C/C=C/C=C/2C)c(OC)c1 [Rapamycin C-7, analog 8a]"
> 1000 nM,38 nM,"COc1ccc([C@H]2C[C@@H]3CC[C@@H](C)[C@@](O)(O3)C(=O)C(=O)N3CCCC[C@H]3C(=O)O[C@H]([C@H](C)C[C@@H]3CC[C@@H](O)[C@H](OC)C3)CC(=O)[C@H](C)/C=C(\C)[C@@H](O)[C@@H](OC)C(=O)[C@H](C)C[C@H](C)/C=C/C=C/C=C/2C)c(OC)c1 [Rapamycin C-7, analog 8b]"
